According to PMC8196580, “Identification of Kaurane-Type Diterpenes as Inhibitors of Leishmania Pteridine Reductase I” (Molecules, 2021):
Read-outs that look alike come from different tables or passages of the source.

Columns and labels:
L. major [1] = test: ChEMBL dataset of pIC50 values against L. major used for the RF model (Table S1); type: cell-based, Leishmania major; further: call rule not given here
L. major [2] = tested on: L. major; design: method as in ChEMBL; conditions: ref ChEMBL, cited from earlier work
[3] = Active/Inactive class assigned to the ChEMBL pIC50 value for Random forest model construction, ref ChEMBL
[4] = ChemBL structures with pIC50 values used for Random forest model construction, L. major
[5] = Active/Inactive class assigned to ChemBL structures for Random forest model construction (Table S1)
[6] = ChemBL structures with pIC50 values used for Random forest model construction (Table S1)

Structure (SMILES) | Outcome (L. major [1]; [3]) | pIC50 Value (L. major [2]; [4]) | Outcome (L. major [1]; [5]) | pIC50 Value (L. major [2]; [6])
CC1(C)C2CCC1(C)[C@H](OC(=O)/C=C/c1ccc(O)c(O)c1)C2 (some centres unmarked) [CHEMBL4177500] | Inactive | 4.31 | – | –
c1ccc(-c2nc3ccccc3[nH]2)cc1 [CHEMBL153535] | – | – | Active | 5.46
O=C(c1cccs1)N1CCN(c2nnc(-c3ccc([N+](=O)[O-])s3)s2)CC1 [CHEMBL464864] | Inactive | 4.55 | – | –
COc1ccc(-c2ccc(OC)c3ccccc23)c2c1C=NC(C)(C)C2 [CHEMBL1277742] | Inactive | 4.43 | – | –
COc1ccc(OC)c2c(O)cc(C)cc12 [CHEMBL2071229] | Inactive | 4.42 | – | –
C[C@]12CC[C@H](O)C[C@@H]1CC[C@@H]1[C@@H]2CC[C@@]2(C)[C@H]1CC[C@@H]2[C@@](C)(O)c1ccncc1Cl [CHEMBL1214242] | Active | 5.10 | – | –
CN[C@@H](C)[C@H]1CC[C@H]2[C@@H]3CC[C@H]4C[C@@H](N(C)C(=O)c5ccccc5)CC[C@]4(C)[C@H]3CC[C@]12C [CHEMBL503323] | Active | 5.06 | – | –
Clc1ccc2c(N3CCN(Cc4ccc(-c5ccccc5)cc4)CC3)ccnc2c1 [CHEMBL1256766] | Inactive | 4.49 | – | –
CCCC/C=C/C=C/c1nc2ccc(OC)cc2n2cccc12 [CHEMBL3260216] | – | – | Active | 5.36
Cc1ccc2c(n1)[nH]c1ccccc12 [CHEMBL1255761] | Inactive | 4.01 | – | –
COc1ccccc1-c1nnc(-c2ccc(C(=O)N/N=C/c3ccccc3O)cc2)o1 [CHEMBL4074817] | – | – | Active | 5.38
O=C(CCl)N1c2cc(Cl)ccc2Oc2ccc(Cl)cc21 [CHEMBL3759123] | Active | 5.02 | – | –
COc1cc(OC)c2c(C)[n+](-c3ccc(C(C)(C)C)cc3)c(C)cc2c1.F[B-](F)(F)F [CHEMBL516763] | – | – | Active | 5.57
Cc1ccc2cc(C3CC(c4ccc(Cl)s4)=NN3)c(Cl)nc2c1 (centres unmarked) [CHEMBL2236141] | – | – | Active | 5.64
CCCCOc1ccc(-c2nc3ccccc3[nH]2)cc1 [CHEMBL531335] | – | – | Active | 5.61
CCN(CC)CCNc1ccc(Nc2c3ccccc3nc3ccccc23)cc1OC [CHEMBL92012] | – | – | Active | 5.80
CC(=O)C1=C(CNc2ccc(C3=NNC(c4ccc(O)cc4)C3)cc2)N(C)C(=O)NC1c1ccccc1 (centres unmarked) [CHEMBL3786468] | – | – | Active | 6.02
COc1cc(CO)c(-c2ccc3c(c2O)[C@@H](C)N[C@H](C)C3)c2cccc(O)c12 [CHEMBL222805] | Inactive | 4.00 | – | –
NP(=O)(OCc1ccccc1[N+](=O)[O-])N(CCCl)CCCl (centres unmarked) [CHEMBL1256928] | Inactive | 4.52 | – | –
COc1ccccc1-c1nnc(-c2ccc(C(=O)N/N=C/c3cccc(O)c3)cc2)o1 [CHEMBL4103014] | Inactive | 4.74 | – | –
Cc1ccccc1/N=C/c1cn(C)c2ccccc12 [CHEMBL2071558] | – | – | Active | 5.64
O=C(/C=C/c1ccc(-n2ccnc2)cc1)c1cccc(O)c1 [CHEMBL571179] | – | – | Active | 5.48
C[C@@H](c1ncncc1F)[C@](O)(Cn1cncn1)c1ccc(F)cc1F [CHEMBL638] | Active | 5.21 | – | –
N#Cc1ccc(-c2c(-c3ccccc3)nc3ccccn23)cc1 [CHEMBL2151864] | Inactive | 4.00 | – | –
Cc1ccc2cc(C3CC(c4ccc(Br)s4)=NN3)c(Cl)nc2c1 (centres unmarked) [CHEMBL2235715] | – | – | Active | 5.64
CCCCN1CN(CC(=O)O)CSC1=S [CHEMBL4283328] | Inactive | 4.61 | – | –
CC1(C)Cc2c(Br)ccc(O)c2C=N1 [CHEMBL1275726] | Inactive | 4.00 | – | –
COc1ccc(-c2ccc(C)cc2)c2c1C(C)=N[C@H](C)C2 [CHEMBL1278083] | Inactive | 4.08 | – | –

Structure (SMILES) | Outcome (L. major [1]; [3]) | pIC50 Value (L. major [2]; [4]) | Outcome (L. major [1]; [5]) | pIC50 Value (L. major [2]; [6])
O=C(CCl)Nc1cc(Cl)ccc1Oc1ccccc1 [CHEMBL3759632] | Inactive | 4.37 | – | –
Cc1ccc(Nc2ncnc3ccc([N+](=O)[O-])cc23)cc1 [CHEMBL3759143] | Inactive | 4.62 | – | –
CCCN(CCC)c1ccc(Nc2c3ccccc3nc3ccccc23)cc1 [CHEMBL88980] | – | – | Active | 6.70
COc1ccc(-c2ccc3cc(C)nc(C)c3c2O)c2cc(C)cc(OC)c12 [CHEMBL224952] | Inactive | 4.00 | – | –
NC[C@@H]1O[C@H](O[C@H]2[C@@H](O)[C@H](O[C@@H]3[C@@H](O)[C@H](N)C[C@H](N)[C@H]3O[C@H]3O[C@H](CO)[C@@H](O)[C@H](O)[C@H]3N)O[C@@H]2CO)[C@H](N)[C@@H](O)[C@@H]1O [CHEMBL370143] | Inactive | 4.00 | – | –
Clc1cc(Cl)cc(-c2nc3ccccn3c2-c2cccnc2)c1 [CHEMBL2151990] | Inactive | 4.50 | – | –
CC(C)N1CN(CC(=O)O)CSC1=S [CHEMBL4277354] | Inactive | 3.86 | – | –
O=[N+]([O-])c1ccc(-c2nnc(NCc3cn(Cc4ccccc4)nn3)s2)o1 [CHEMBL1951522] | Inactive | 4.71 | – | –
O=C(CCl)N1c2ccccc2CCc2ccccc21 [CHEMBL1314125] | Inactive | 4.36 | – | –
O=C(CCCl)N1c2ccccc2Oc2ccc(Cl)cc21 [CHEMBL3759105] | Inactive | 4.80 | – | –
Nc1ccc(Nc2c3ccccc3nc3ccccc23)cc1 [CHEMBL289352] | – | – | Active | 5.68
COc1ccc(-c2ccc(OC)c3ccccc23)c2c1C=NCC2 [CHEMBL1277828] | Inactive | 4.33 | – | –
COc1ccc(-n2nnc3c(N4CCCC(O)C4)nc(CC4CCCCC4)nc32)cc1 (centres unmarked) [CHEMBL2171512] | Active | 5.07 | – | –
O=[N+]([O-])c1ccc(-c2nnc(NCc3cn(Cc4ccc(F)cc4)nn3)s2)o1 [CHEMBL1951524] | Inactive | 4.67 | – | –
Cc1ccc(-c2c(-c3ccccc3)nc3ccccn23)cc1 [CHEMBL2151857] | – | – | Active | 5.40
COc1ccc(/C=N\NC(N)=S)cc1OCc1cn(CC(=O)c2ccc(Br)cc2)nn1 [CHEMBL4175020] | Active | 5.24 | – | –
Clc1ccc(C2=NN3C(c4ccccc4)=NNC3S2)c(Cl)c1 (centres unmarked) [CHEMBL1256801] | Inactive | 4.00 | – | –
COc1ccccc1-c1nnc(-c2ccc(C(=O)N/N=C/c3ccc(Cl)cc3)cc2)o1 [CHEMBL4060153] | Inactive | 4.47 | – | –
COc1ccc(O)c(/C=N/NC(=O)c2ccc(-c3nnc(-c4ccccc4OC)o3)cc2)c1 [CHEMBL4082571] | Inactive | 4.79 | – | –
OC(Cn1cncn1)(Cn1cncn1)c1ccc(F)cc1F [CHEMBL106] | Inactive | 3.79 | – | –
O=[N+]([O-])c1ccc2nc(-c3ccc(F)cc3)[nH]c2c1 [CHEMBL2297902] | – | – | Active | 5.52
COc1ccc(/C=N/NC(=O)c2ccc(-c3nnc(-c4ccccc4OC)o3)cc2)c(O)c1 [CHEMBL4090407] | Active | 5.18 | – | –
Cc1ccc2cc(/C=C/C(=O)c3cc(Cl)sc3Cl)c(Cl)nc2c1 [CHEMBL1940857] | – | – | Active | 5.69
O=C(CCl)N1c2ccccc2Sc2ccc(Cl)cc21 [CHEMBL290253] | Inactive | 4.98 | – | –
CCOC(=O)C1=C(C)NC(=S)NC1c1ccc(C)cc1 (centres unmarked) [CHEMBL3786732] | – | – | Active | 5.66
C=C[C@@]1(C)CC2=C(C[C@H]1C(=C)C)C(=O)C=CC2=O [CHEMBL401583] | Inactive | 4.06 | – | –
CCOC(=O)C1=C(C)NC(=O)NC1c1ccccc1 (centres unmarked) [CHEMBL507603] | – | – | Active | 5.42
